Assay results taken from article PMC11093748, “De novo identification of CD4^+ T cell epitopes” (Nature Methods, 2024).

Tests used:
Test in all cases: Multiplexed TCR/library dropout screen, mean ES
Format in all cases: cell-based, mouse
[1] = tested on: TCR1; conditions: two I-Ag7 libraries combined, mixture of seven TCRs, dropout replicates (n = 6); one biological experiment
From the text: (§1) Finally, we sought to address two important aspects of antigen discovery techniques. First, we assessed whether SABR-II screens can directly read out the strength of TCR–pMHC binding. To that end, we selected six known BDC2.5 ligands across a range of ES values (Extended Data Fig. 9a) and we measured the functional avidity of their recognition by BDC2.5 TCR in vitro. Bone-marrow-derived dendritic cells were pulsed with a range of concentrations of peptides corresponding to the epitopes and used to present the peptides to BDC2.5 TCR-expressing 5KC cells. Secretion of mIL-2 was measured by ELISA and used to determine the functional avidity as EC50 (concentration of the peptide needed to induce half-maximal mIL-2) (Extended Data Fig. 9b). We observed that there was a modest negative correlation between the EC50 values of the epitopes and their ES values (Extended Data Fig. 9c). […] Second, we evaluated whether we could increase the throughput of SABR-II screens by multiplexing TCRs and libraries at the cellular level. We combined the two previously described I-Ag7 libraries in equal proportions according to their size and used it as a single library. We also employed a dropout strategy, in which a mixture of seven TCRs was screened in replicate, where one TCR was left out in each replicate. After single enrichment, we determined the mean ES of all replicates that contained a given TCR and used it to identify the cognate epitope of that TCR (Extended Data Fig. 10 and Supplementary Table 6). Using this strategy, we were able to successfully recapitulate the results for four out of four TCRs previously identified in individual screens. The use of such a strategy will greatly enhance the throughput or SABR-II screens by reducing the hands-on sort time from 1 h per TCR to 20 min per TCR.
(§2) For SABR library screens, 3 × 10^6 NFAT–GFP Jurkat cells expressing the SABR library were labeled with CellTrace Violet (BioLegend) according to the manufacturer’s protocol before incubation with 3 × 10^6 Jurkat cells expressing the TCR of interest. These mixtures were incubated in a six-well plate for 16–20 h. Cells were stained with anti-CD69-APC-Cy7 where indicated (BioLegend) and the top 1–2% of GFP^+CD69^+ cells were sorted for genomic DNA extraction, indexing and sequencing (see below). Multiplexed assays were scaled on a per-TCR basis (for example 3 × 10^6 for each of three TCRs against 9 × 10^6 library cells). For single SABR assays, unless otherwise defined, 5 × 10^5 SABR expressing NFAT–GFP Jurkat cells (or 5KC cells) were labeled with CellTrace Violet (BioLegend) according to the manufacturer’s protocol before incubation with 5 × 10^5 TCR-expressing Jurkat cells (or 5KC cells) in a round-bottom 96-well plate for 16–20 h. Cells were stained with anti-CD69-APC-Cy7 when indicated and acquired on the Attune NxT flow cytometer (Thermo Fisher Scientific). All flow analysis was performed using FlowJo (BD). For Daudi cell co-culture, 1 × 10^6 Jurkat cells expressing the TCR of interest were incubated with 1 × 10^6 Daudi cells expressing a SABR of interest for 3 days. On day 3, cells were labeled with anti-RT1B-PE and anti-Fas-APC-Cy7 before being acquired on the Attune NxT flow cytometer.
(§3) Genomic DNA was extracted from sorted cells immediately after sorting, using the PureLink genomic DNA extraction kit (Life Technologies). The integrated SABR vectors were amplified with KOD polymerase (Millipore) and two rounds of amplification. In the first round, IDT-UD-SABR-C2-F and IDT-UD-SABR-C2-R primers were used to amplify the epitope. In the second round, UDI0001-R and UDI0001-F primers (representative of index 1) were used to add Illumina unique dual indexes (UDIs) to the amplicons. A different UDI was used for each sample. The reactions were pooled and purified with the NucleoSpin gel and PCR purification kit (Takara). The purified PCR product was checked before sequencing using 2% agarose gel and subjected to sequencing on a HiSeq4000 (Fulgent Genetics). […]

[2] = tested on: TCR24; conditions: Avg ES for all the replicates that contain that TCR (TCR24)
From the text: as §1, §2, §3

[3] = tested on: TCR2; conditions: Avg ES for all the replicates that contain that TCR (TCR2)
From the text: as §1, §2, §3

[4] = tested on: TCR37; conditions: Avg ES for all the replicates that contain that TCR (TCR37)
From the text: as §1, §2, §3

[5] = tested on: TCR3; conditions: two I-Ag7 libraries combined, mixture of seven TCRs, dropout replicates (n = 6)
From the text: as §1, §2, §3

[6] = tested on: TCR5; conditions: two I-Ag7 libraries combined, mixture of seven TCRs, dropout replicates (n = 6)
From the text: as §1, §2, §3

[7] = tested on: TCR7; conditions: two I-Ag7 libraries combined, mixture of seven TCRs, dropout replicates (n = 6)
From the text: as §1, §2, §3

Row | Sequence | Mean Dropout Enrichment Score [1] | ES for each dropout, LOO_TCR24 [2] | ES for each dropout, LOO_TCR2 [3] | ES for each dropout, LOO_TCR37 [4] | Mean Dropout Enrichment Score [5] | Mean Dropout Enrichment Score [6] | Mean Dropout Enrichment Score [7]
1 | ALVREGLRNVAAGANP | -1.224e-5 | -1.224e-5 | -1.224e-5 | -1.224e-5 | -1.224e-5 | -1.224e-5 | -1.224e-5
2 | AKAAVEEGIVAGGGV | 1.526e-5 | 8.2968e-7 | 1.371e-5 | 7.483e-6 | 1.247e-5 | 9.209e-6 | -7.192e-6
3 | AEKVRNLPAGHGLNAQ | -4.113e-5 | -1.89e-5 | -1.229e-5 | -2.944e-5 | -2.694e-5 | -3.449e-5 | -3.038e-5
4 | AAVEEGIVAGGGVTLL | 9.635e-6 | 1.546e-6 | 1.97e-6 | 2.247e-6 | -1.302e-6 | -4.831e-6 | -1.2378e-6
5 | AGGVAVIKAGAATEV | 1.903e-5 | 2.636e-5 | 7.935e-6 | 1.413e-5 | 3.191e-5 | 1.931e-5 | 2.296e-5
